# Measurements published in patent EP1100483B1, “GLUCOCORTICOID-SELECTIVE ANTI-INFLAMMATORY AGENTS” (Abbott Laboratories, priority 1998, dated 2000).
# Target: T1, human glucocorticoid receptor-α [GRX] isoform (Homo sapiens, UniProt P04150)
# T1 construct: purchased Ligand Pharmaceuticals (San Diego, CA); host or cells: insect SF21 cells (baculovirus)
# T1 sequence (P04150 1-777): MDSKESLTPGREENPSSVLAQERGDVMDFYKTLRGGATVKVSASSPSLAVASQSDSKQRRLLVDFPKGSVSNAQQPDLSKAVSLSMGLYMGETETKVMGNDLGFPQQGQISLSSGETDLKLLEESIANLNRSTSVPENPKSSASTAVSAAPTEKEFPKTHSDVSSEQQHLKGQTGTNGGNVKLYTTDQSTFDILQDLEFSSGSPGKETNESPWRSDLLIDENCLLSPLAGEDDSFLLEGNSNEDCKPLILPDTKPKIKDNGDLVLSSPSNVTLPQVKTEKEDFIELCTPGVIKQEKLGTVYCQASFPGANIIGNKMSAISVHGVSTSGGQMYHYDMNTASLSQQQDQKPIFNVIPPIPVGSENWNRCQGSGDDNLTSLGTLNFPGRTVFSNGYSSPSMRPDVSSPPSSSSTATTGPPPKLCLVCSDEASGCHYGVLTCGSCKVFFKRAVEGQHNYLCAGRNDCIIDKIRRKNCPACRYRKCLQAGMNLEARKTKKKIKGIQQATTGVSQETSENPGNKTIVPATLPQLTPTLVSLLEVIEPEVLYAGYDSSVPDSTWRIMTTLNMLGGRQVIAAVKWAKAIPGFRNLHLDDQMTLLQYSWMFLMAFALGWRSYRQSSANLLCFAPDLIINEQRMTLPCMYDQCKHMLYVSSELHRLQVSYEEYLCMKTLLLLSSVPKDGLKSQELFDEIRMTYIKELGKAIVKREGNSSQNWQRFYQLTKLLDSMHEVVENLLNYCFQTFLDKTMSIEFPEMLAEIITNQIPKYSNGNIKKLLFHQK
# Test: glucocorticoid receptor (GR) cytosol binding assay, [3H]-dexamethasone competition
# Conditions: not given
# Source text: For glucocorticoid receptor (OR) cytosol binding assays, the procedure described in Anal. […] Briefly, cytosol preparations of human glucocorticoid receptor-α [GRX] isoform and human progesterone receptor-A [PRA] isoform were obtained from Ligand Pharmaceuticals (San Diego, CA). Both receptor cDNAs were cloned into baculovirus expression vectors and expressed in insect SF21 cells. […] Glass fiber type C multiscreen MAFC NOB plates were from Millipore ( Burlington, MA). Hydroxyapatide Bio-Gel HTP gel was obtained from Bio-Rad Laboratories (Hercules. CA). Tris(hydroxymethyl)aminomethane (Tris), ethylenediaminetetraacetic acid (EDTA), glycerol, dithiothreitol (DTT) and sodium moylybdate were obtained from Sigma Chemicals (St. Louis, MO). Microscint-20 scintillation fluid was obtained from Packard Instrument (Meriden, CT). […] GRX and PRA binding reactions were performed in Millipore Multiscreen plates. […] Specific binding was defined as the difference between binding of [^3H]Dex in the absence and in the presence of 1µM unlabeled Dex. After an overnight incubation, 50 µL of hydroxyapatite (25 % weight/volume) slurry were added to each well and plates were incubated for 10 min at 4 °C in a plate shaker. Plates were suctioned with a Millipore vacuum manifold and each well was rinsed with 300 µL of ice-cold binding buffer. A 250 µL aliquot of Packard Microscint-20 was added to each well and the wells were shaken at room temperature for 20 minutes. The amount of radioactivity was determined with a Packard TopCount plate reader.
row,Structure (SMILES),Ki
1,"CN(C)c1ccc(C(c2ccc(N3CCCCC3)cc2)c2cc([N+](=O)[O-])ccc2Cl)cc1 (stereo not shown) [Example 46, 4'-dimethylamino-4""-(N-piperidinyl)-2-chloro-5-nitrotriphenylmethane]",1160 nM
2,"CN(C)c1ccc(C(c2ccc(N(C)C)cc2)c2ccccc2I)cc1 [Example 26, 4',4"" bis(dimethylamino)-2-iodotriphenylmethane]",734 nM
3,"CN(C)c1ccc(C(c2ccc(N(C)C)cc2)c2ccccc2Br)cc1 [Example 14, 4',4"" bis(dimethylamino)-2-bromotriphenylmethane]",1510 nM
4,"CN(C)c1ccc(C(c2ccc(N(C)C)cc2)c2cc3c(cc2Cl)OCO3)cc1 [Example 19, 4',4"" bis(dimethylamino)-2-chloro-4,5-methylenedioxytriphenylmethane]",1600 nM
5,"CN(C)c1ccc(C(c2ccc(N(C)C)cc2)c2c(Cl)cccc2Cl)cc1 [Example 20, 4',4"" bis(dimethylamino)-2,6-dichlorotriphenylmethane]",1930 nM
6,"Cc1ccccc1C(c1ccc(N(C)C)cc1)c1ccc(N(C)C)cc1 [Example 15, 4',4"" bis(dimethylamino)-2-methyltriphenylmethane]",2960 nM
7,"CN(C)c1ccc(C(c2ccc(N(C)C)cc2)c2cc(Cl)cc(Cl)c2Cl)cc1 [Example 16, 4',4"" bis(dimethylamino)-2,3,5-trichlorotriphenylmethane]",479 nM
8,"CN(C)c1ccc(C(c2ccc(N(C)C)cc2)c2ccc(Cl)cc2Cl)cc1 [Example 18, 4',4"" bis(dimethylamino)-2,4-dichlorotriphenylmethane]",5000 nM
9,"CN(C)c1ccc(C(c2ccc(N(C)C)cc2)c2cc(I)ccc2Cl)cc1 [Example 33, 4'.4"" bis(dimethylamino)-2-chloro-5-iodotriphenylmethane]",2300 nM
10,"Cc1cc(C(c2ccc(N(C)C)cc2)c2cc([N+](=O)[O-])ccc2Cl)ccc1N(C)C (stereo not shown) [Example 44, 3'-methyl-4',4""-bis(dimethylamino)-2-chloro-5-nitrotriphenylmethane]",287 nM
11,"COc1ccc(C(c2ccc(N(C)C)cc2)c2ccc(N(C)C)cc2)cc1 [Example 38, 4',4""bis(dimethylamino)-4-methoxytriphenylmethane]",4710 nM
12,"CCCCN(CCCC)c1ccc(C(c2ccc(N(C)C)cc2)c2cc([N+](=O)[O-])ccc2Cl)cc1 (stereo not shown) [Example 43, 4'-dimethylamino-4""-(di-n-butylamino)-2-chloro-5-nitrotriphenylmethane]",4490 nM
13,"CN(C)c1ccc(C(c2ccc(N3CCOCC3)cc2)c2cc([N+](=O)[O-])ccc2Cl)cc1 (stereo not shown) [Example 40, 4'-dimethylamino-4""-(N-morpholinyl)-2-chloro-5-nitrotriphenylmethane]",252 nM
14,"CN(C)c1ccc(C(c2ccc(N(C)C)cc2)c2ccccc2C(F)(F)F)cc1 [Example 10, 4',4"" bis(dimethylamino)-2-trifluoromethyltriphenylmethane]",2230 nM
15,"CN(C)c1ccc(C(c2ccc(N(C)C)cc2)c2cc(NC(=O)c3ccc([N+](=O)[O-])cc3)ccc2Cl)cc1 [Example 60, 4',4"" bis(dimethylamino)-2-chloro-5-(4-nitrobenzamido)triphenylmethane]",4650 nM
16,"CN(C)c1ccc(C(c2ccc(N(C)C)cc2)c2cccc(Cl)c2Cl)cc1 [Example 21, 4',4"" bis(dimethylamino)-2,3-dichlorotriphenylmethane]",1890 nM
17,"CN(C)c1ccc(C(c2ccc(N(C)C)cc2)c2cc(C(F)(F)F)ccc2Cl)cc1 [Example 17, 4',4"" bis(dimethylamino)-2-chloro-5-trifluoromethyltriphenylmethane]",4700 nM

# Same assay, conditions: [3H]-Dex ~0.9 nM, GRX cytosol, 4 °C overnight; Cheng-Prusoff; read-out: Ki (nM) GR
row,Ki,Structure (SMILES)
1,757 nM,"CN(C)c1ccc(C(c2ccc(N(C)C)cc2)c2cc(NCc3ccco3)ccc2Cl)cc1 [Example 66, 4',4"" bis(dimethylamino)-2-chloro-5-(2-furanylmethylamino)triphenylmethane]"
2,4650 nM,"CN(C)c1ccc(C(c2ccc(N(C)C)cc2)c2ccc([N+](=O)[O-])cc2)cc1 [Example 4, 4',4"" bis(dimethylamino)-4-nitrotriphenylmethane]"
3,3850 nM,"CN(C)c1ccc(C(c2ccc(N(C)C)cc2)c2c(Cl)cccc2[N+](=O)[O-])cc1 [Example 12, 4',4"" bis(dimethylamino)-2-chloro-6-nitrotriphenylmethane]"
4,5150 nM,"CC(=O)Nc1ccc(Cl)c(C(c2ccc(N(C)C)cc2)c2ccc(N(C)C)cc2)c1 [Example 3, 4',4"" bis(dimethylamino)-5-acetamido-2-chlorotriphenylmethane]"
5,4600 nM,"CN(C)c1ccc(C(c2ccc(N(C)C)cc2)c2cc(N)ccc2Cl)cc1 [Example 59, 4',4"" bis(dimethylamino)-5-amino-2-chlorotriphenylmethane]"
6,386 nM,"O=[N+]([O-])c1ccc(Cl)c(C(c2ccc(N3CCOCC3)cc2)c2ccc(N3CCOCC3)cc2)c1 [Example 22, 4',4"" bis(N-morpholinyl)-2-chloro-5-nitrotriphenylmethane]"
7,4290 nM,"COc1ccccc1C(c1ccc(N(C)C)cc1)c1ccc(N(C)C)cc1 [Example 8, 4',4"" bis(dimethylamino)-2-methoxytriphenylmethane]"
8,421 nM,"Clc1ccc(Cl)c(C(c2ccc(NCc3ccccc3)cc2)c2ccc(NCc3ccccc3)cc2)c1 [Example 37, 4',4"" bis(N-benzylamino)-2,5-dichlorotriphenylmethane]"
9,5270 nM,"COC(=O)Nc1ccc(Cl)c(C(c2ccc(N(C)C)cc2)c2ccc(N(C)C)cc2)c1 [Example 64, 4',4"" bis(dimethylamino)-2-chloro-5-(methoxycarbonylamino)triphenylmethane]"
10,4650 nM,"CN(C)c1ccc(C(c2ccc(Cl)cc2)c2ccc(N(C)C)cc2)cc1 [Example 5, 4',4"" bis(dimethylamino)-4-chlorotriphenylmethane]"
11,4200 nM,"CN(C)c1ccc(C(c2ccc(N(C)C)cc2)c2ccc(Cl)c([N+](=O)[O-])c2)cc1 [Example 2, 4',4"" bis(dimethylamino)-4-chloro-3-nitrotriphenylmethane]"
12,4600 nM,"CN(C)c1ccc(C(c2ccc(N(C)C)cc2)c2cc(NC(=O)C3CC3)ccc2Cl)cc1 [Example 62, 4',4"" bis(dimethylamino)-2-chloro-5-(cyclopropylcarbamido)-triphenylmethane]"
13,2520 nM,"CN(C)c1ccc(C(c2ccc(N(C)C)cc2)c2cccc(Cl)c2)cc1 [Example 6, 4',4"" bis(dimethylamino)-3-chlorotriphenylmethane]"
14,1030 nM,"CN(C)c1ccc(C(c2ccccc2)c2cc([N+](=O)[O-])ccc2Cl)cc1 (stereo not shown) [Example 56, 4'-dimethylamino-2-chloro-5-nitrotriphenylmethane]"
15,1990 nM,"CN(C)c1ccc(C(c2ccc(N(C)C)cc2)c2ccccc2Cl)cc1 [Example 7, 4',4"" bis(dimethylamino)-2-chlorotriphenylmethane]"

row,Structure (SMILES),Ki
1,"CN(C)c1ccc(C(Nc2ccccc2)c2cc([N+](=O)[O-])ccc2Cl)cc1 (stereo not shown) [Example 55, phenyl-[(4'-dimethylaminophenyl)-(2-chloro-5-nitrophenyl)methyl] amine]",1680 nM
2,"CN(C)c1ccc(C(Oc2ccc(Cl)cc2)c2cc([N+](=O)[O-])ccc2Cl)cc1 (stereo not shown) [Example 53, 4-chlorophenyl-[(4'-dimethylaminophenyl)-(2-chloro-5-nitrophenyl)methyl] ether]",788 nM
3,"O=[N+]([O-])c1ccc(Cl)c(C(c2ccc(N3CCCC3)cc2)c2ccc(N3CCCC3)cc2)c1 [Example 29, 4',4"" bis(N-pyrrolidinyl)-2-chloro-5-nitrotriphenylmethane]",4560 nM
4,"CN(C(=O)OC(C)(C)C)c1ccc(C(c2ccc(N(C)C(=O)OC(C)(C)C)cc2)c2cc([N+](=O)[O-])ccc2Cl)cc1 [Example 35, 4',4"" bis(N-(t-butoxycarbonyl) N-methylamino)-2-chloro-5-nitrotriphenylmethane]",4560 nM
5,"Clc1cc(Cl)c(Cl)c(C(c2ccc(N3CCOCC3)cc2)c2ccc(N3CCOCC3)cc2)c1 [Example 28, 4',4"" bis(N-morpholinyl)-2,3,5-trichlorotriphenylmethane]",5270 nM
